Assay results reported in US11919901B2 (Syndax Pharmaceuticals, Inc., priority 2021, dated 2024).

The compounds below were run on MV4-11 cells (assay: Cell proliferation assay MV4;11 (CellTiter-Glo, 72 hours)). Conditions: Homo sapiens; MV4;11 leukemia cell line, 72 hours; read-out: MV4; 11 IC50.
Type: cell-based
Experimental: Compounds were evaluated for its capacity to inhibit the proliferation of the MLLr leukemia cell line MV4-11 that harbors an MLL1-AF4 fusion protein. MV4-11 cells were cultured for 72 hours with limiting dilutions of compounds and viability was measured using CellTiter-Glo.
Compounds were dissolved to obtain as 10 mM solution in DMSO. The stock was diluted 1:5 to the top concentration of 2 mM in 100% DMSO. For IC50 determination, serial 1:3.16 dilutions were prepared in 100% DMSO by diluting 20 μL into 43.5 μL of DMSO for 8 concentrations. Each prepared DMSO solution were further diluted 1:500 in the cell culture media to obtain the 2× dosing solutions. The final concentrations of tested compounds in the cell culture media ranged from 0.632 nM to 2000 nM.
MV4-11 cells were cultured in IMDM with 10% FBS and 1× Penicillin-Streptomycin at 5% CO2 and 37° C. A cell suspension was prepared containing 15,000 cells/ml in the culture medium and 100 μL of this suspension was added per well to a 96-well cell culture plate. Then, 100 μL of 2× dosing media containing test compounds were added bringing the total volume to 200 μL. These cells were cultured for 72 hours at 37° C. and 5% CO2 in a humidified incubator.
After 72 hours, the cultured cells were mixed and 100p L was transferred to a 96-well black plate. Cell Titer Glo (100 μl) was then added to this plate. The plate was mixed with shaking for 15 mins at RT, the luminescence was then measured using Tecan Spark 20M spectrophotometer. Cell Viability (%) was determined by RLU of test/RLU average vehicle control*100 and % max inhibition was determined by 100−(% cell viability remaining at the top concentration of compound).

Structure (SMILES)	IC50
CCS(=O)(=O)N[C@@H]1CC[C@@H](CN2CCC3(CC2)CN(c2ncncc2Oc2ccc(F)cc2C(=O)N(C(C)C)C2COC2)C3)OC1 [Example 48, 2-((4-(7-(((2S,5R)-5-(Ethylsulfonamido)tetrahydro-2H-pyran-2-yl)methyl)-2,7-diazaspiro[3.5]nonan-2-yl)pyrimidin-5-yl)oxy)-5-fluoro-N-isopropyl-N-(oxetan-3-yl)benzamide]	< 0.1 µM
CCN(C(=O)c1cc(F)ccc1Oc1cncnc1N1CC2(CCN(C[C@@H]3CC[C@@H](NS(=O)(=O)N4CCC4)CO3)CC2)C1)C(C)C [Example 69, 2-((4-(7-(((2S,5R)-5-(Azetidine-1-sulfonamido)tetrahydro-2H-pyran-2-yl)methyl)-2,7-diazaspiro[3.5]nonan-2-yl)pyrimidin-5-yl)oxy)-N-ethyl-5-fluoro-N-isopropylbenzamide]	< 0.1 µM
CCS(=O)(=O)N[C@@H]1CC[C@@H](CN2CCC3(CC2)CN(c2ncncc2Oc2ccc(F)cc2C(=O)N2[C@H](C)COC[C@@H]2C)C3)OC1 [Example 24, N-((3R,6S)-6-((2-(5-(2-((3S,5R)-3,5-dimethylmorpholine-4-carbonyl)-4-fluorophenoxy)pyrimidin-4-yl)-2,7-diazaspiro[3.5]nonan-7-yl)methyl)tetrahydro-2H-pyran-3-yl)ethanesulfonamide]	< 0.1 µM
CC(C)N(CC(F)F)C(=O)c1cc(F)ccc1Oc1cncnc1N1CC2(CCN(C[C@@H]3CC[C@@H](NS(=O)(=O)N(C)CCO)CO3)CC2)C1 [Example 239, N-(2,2-difluoroethyl)-5-fluoro-2-((4-(7-(((2S,5R)-5-((N-(2-hydroxyethyl)-N-methylsulfamoyl)amino)tetrahydro-2H-pyran-2-yl)methyl)-2,7-diazaspiro[3.5]nonan-2-yl)pyrimidin-5-yl)oxy)-N-isopropylbenzamide]	< 0.1 µM
CC(C)N(C(=O)c1cc(F)ccc1Oc1nncnc1N1CC2(CCN(C[C@@H]3CC[C@@H](NS(=O)(=O)N4CCC4)CO3)CC2)C1)C(C)C [Example 199, 2-((5-(7-(((2S,5R)-5-(Azetidine-1-sulfonamido)tetrahydro-2H-pyran-2-yl)methyl)-2,7-diazaspiro[3.5]nonan-2-yl)-1,2,4-triazin-6-yl)oxy)-5-fluoro-N,N-diisopropylbenzamide]	< 0.1 µM
CC(C)N(C)C(=O)c1cc(F)ccc1Oc1cncnc1N1CC2(CCN(C[C@@H]3CC[C@@H](NS(=O)(=O)N4CCC4)CO3)CC2)C1 [Example 138, 2-((4-(7-(((2S,5R)-5-(Azetidine-1-sulfonamido)tetrahydro-2H-pyran-2-yl)methyl)-2,7-diazaspiro[3.5]nonan-2-yl)pyrimidin-5-yl)oxy)-5-fluoro-N-isopropyl-N-methylbenzamide]	< 0.1 µM
CC(C)N(C(=O)c1cc(F)ccc1Oc1cncnc1N1CC2(CCN(C[C@@H]3CC[C@@H](NS(=O)(=O)C4CC4)CO3)CC2)C1)C(C)C [Example 15, 2-((4-(7-(((2S,5R)-5-(Cyclopropanesulfonamido)tetrahydro-2H-pyran-2-yl)methyl)-2,7-diazaspiro[3.5]nonan-2-yl)pyrimidin-5-yl)oxy)-5-fluoro-N,N-diisopropylbenzamide]	< 0.1 µM
C[C@@H]1COC[C@H](C)N1C(=O)c1cc(F)ccc1Oc1cncnc1N1CC2(CCN(C[C@@H]3CC[C@@H](NS(=O)(=O)NC4CC4)CO3)CC2)C1 [Example 163, N-[(3R,6S)-6-{[2-(5-{2-[(3R,5S)-3,5-Dimethylmorpholine-4-carbonyl]-4-fluorophenoxy}pyrimidin-4-yl)-2,7-diazaspiro[3.5]nonan-7-yl]methyl}oxan-3-yl](cyclopropylamino)sulfonamide]	< 0.1 µM
CC(C)N(CC(F)F)C(=O)c1cc(F)ccc1Oc1cncnc1N1CC2(CCN(C[C@@H]3CC[C@@H](NS(=O)(=O)NCC4CC4)CO3)CC2)C1 [Example 148, 2-((4-(7-(((2S,5R)-5-((N-(Cyclopropylmethyl)sulfamoyl)amino)tetrahydro-2H-pyran-2-yl)methyl)-2,7-diazaspiro[3.5]nonan-2-yl)pyrimidin-5-yl)oxy)-N-(2,2-difluoroethyl)-5-fluoro-N-isopropylbenzamide]	< 0.1 µM
CCN(C(=O)c1cc(F)ccc1Oc1cncnc1N1CC2(CCN(C[C@@H]3CC[C@@H](NS(=O)(=O)CCN(C)C)CO3)CC2)C1)C(C)C [Example 220, 2-((4-(7-(((2S,5R)-5-((2-(Dimethylamino)ethyl)sulfonamido)tetrahydro-2H-pyran-2-yl)methyl)-2,7-diazaspiro[3.5]nonan-2-yl)pyrimidin-5-yl)oxy)-N-ethyl-5-fluoro-N-isopropylbenzamide]	0.1 to 1 µM
CC(C)N(C(=O)c1cc(F)ccc1Oc1cncnc1N1CC2(CCN(C[C@@H]3CC[C@@H](NS(=O)(=O)N4CCC4)CO3)CC2)C1)C(C)C [Example 88, 2-((4-(7-(((2S,5R)-5-(Azetidine-1-sulfonamido)tetrahydro-2H-pyran-2-yl)methyl)-2,7-diazaspiro[3.5]nonan-2-yl)pyrimidin-5-yl)oxy)-5-fluoro-N,N-diisopropylbenzamide]	< 0.1 µM
CCNS(=O)(=O)N[C@@H]1CC[C@@H](CN2CCC3(CC2)CN(c2ncncc2Oc2ccc(F)cc2C(=O)N(CC)C(C)C)C3)OC1 [Example 141, N-Ethyl-2-((4-(7-(((2S,5R)-5-((N-ethylsulfamoyl)amino)tetrahydro-2H-pyran-2-yl)methyl)-2,7-diazaspiro[3.5]nonan-2-yl)pyrimidin-5-yl)oxy)-5-fluoro-N-isopropylbenzamide]	< 0.1 µM
Cc1nc(S(=O)(=O)N[C@@H]2CC[C@@H](CN3CCC4(CC3)CN(c3ncncc3Oc3ccc(F)cc3C(=O)N3[C@H](C)COC[C@@H]3C)C4)OC2)cs1 [Example 131, N-((3R,6S)-6-((2-(5-(2-((3S,5R)-3,5-Dimethylmorpholine-4-carbonyl)-4-fluorophenoxy)pyrimidin-4-yl)-2,7-diazaspiro[3.5]nonan-7-yl)methyl)tetrahydro-2H-pyran-3-yl)-2-methylthiazole-4-sulfonamide]	< 0.1 µM
CCN(C(=O)c1cc(F)ccc1Oc1cncnc1N1CC2(CCN(C[C@@H]3CC[C@@H](NS(=O)(=O)c4ccccc4)CO3)CC2)C1)C(C)C [Example 45, N-Ethyl-5-fluoro-N-isopropyl-2-((4-(7-(((2S,5R)-5-(phenylsulfonamido)tetrahydro-2H-pyran-2-yl)methyl)-2,7-diazaspiro[3.5]nonan-2-yl)pyrimidin-5-yl)oxy)benzamide]	< 0.1 µM
CC(C)N(C(=O)c1cc(F)ccc1Oc1cncnc1N1CC2(CCN(C[C@@H]3CC[C@@H](NS(=O)(=O)NCC(F)(F)F)CO3)CC2)C1)[C@@H]1CCOC1 [Example 171, 5-Fluoro-N-isopropyl-N-((R)-tetrahydrofuran-3-yl)-2-((4-(7-(((2S,5R)-5-((N-(2,2,2-trifluoroethyl)sulfamoyl)amino)tetrahydro-2H-pyran-2-yl)methyl)-2,7-diazaspiro[3.5]nonan-2-yl)pyrimidin-5-yl)oxy)benzamide]	< 0.1 µM
CCS(=O)(=O)N[C@@H]1CC[C@@H](CN2CCC3(CC2)CN(c2ncncc2Oc2ccc(F)cc2C(=O)N(C(C)C)[C@@H]2CCOC2)C3)OC1 [Example 46, 2-((4-(7-(((2S,5R)-5-(Ethylsulfonamido)tetrahydro-2H-pyran-2-yl)methyl)-2,7-diazaspiro[3.5]nonan-2-yl)pyrimidin-5-yl)oxy)-5-fluoro-N-isopropyl-N-((R)-tetrahydrofuran-3-yl)benzamide]	< 0.1 µM
